How the values were obtained:
Assay in all cases: Cell viability drug screen, 12-point dose-response AUC
Format in all cases: cell-based, human
MKN1 = MKN1 cells; 72 hours
Procedure: (§1) An FDA-approved small-molecule pharmacological compound (#L1300) and an anticancer compound for research (#L2000) were purchased from Selecckchem and a 10 mM solution was prepared in DMSO. A total of 1,345 compounds were tested the cell viability of the seven EMT gastric cancer cell lines.
(§2) Cells cultured for cell-based drug assay were inoculated into a 96-well white optical plate (Corning) at 5×10^3 cells per well. After 24 hours after inoculation, a 2.5 MJT (primary screen) or a half-log 12-serial diluent (secondary screen) of the pharmacological compound contained in DMSO is added to the cells with a robot using a BioMek FXp liquid processor (Beckman) to add to the cells at 50 mM. The final drug concentration in the 5 ns range and the DMSO specification control (0.5%) were calculated. The cells were then further incubated at 37° C. in a 5% CO2 incubator for 72 hours prior to measuring cell viability using the extra-GLO assay kit (Promega). The luminescent properties were measured after 15 min incubation at room temperature using a plate stacker equipped with a plate stacker. The normalized viability for the DMSO-based control was measured to generate a cell line-specific 12-point dose-response curve for each pharmacological compound, and then the area under the curve (AUC) was calculated using a trapezoidal method. […] The results of the repeated experiments were averaged to generate AUC values for each cell line for each compound.

SNU1750 = SNU1750 cells (SEM subtype); 72 hours
Procedure: as §1, §2

YCC3 = YCC3 cells; 72 hours
Procedure: as §1, §2

NCC20 = NCC20 cells; 72 hours
Procedure: as §1, §2

MKN74 = MKN74 cells; 72 hours
Procedure: as §1, §2

NCC19 = NCC19 cells; 72 hours
Procedure: as §1, §2

OCUM1 = OCUM1 cells; 72 hours
Procedure: as §1, §2

SNU484 = SNU484 cells (SEM subtype); 72 hours
Procedure: as §1, §2

YCC2 = YCC2 cells; 72 hours
Procedure: as §1, §2

SNU719 = SNU719 cells; 72 hours
Procedure: as §1, §2

SNU1967 = SNU1967 cells; 72 hours
Procedure: as §1, §2

NCC59 = NCC59 cells; 72 hours
Procedure: as §1, §2

SNU638 = SNU638 cells; 72 hours
Procedure: as §1, §2

SNU16 = SNU16 cells; 72 hours
Procedure: as §1, §2

SNU620 = SNU620 cells; 72 hours
Procedure: as §1, §2

MKN28 = MKN28 cells; 72 hours
Procedure: as §1, §2

SNU1 = SNU1 cells; 72 hours
Procedure: as §1, §2

NCC24 = NCC24 cells; 72 hours
Procedure: as §1, §2

SNU668 = SNU668 cells (SEM subtype); 72 hours
Procedure: as §1, §2

SNU216 = SNU216 cells (non-SEM subtype); 72 hours
Procedure: as §1, §2

SK4 = SK4 cells (SEM subtype); 72 hours
Procedure: as §1, §2

KATO3 = KATO3 cells; 72 hours
Procedure: as §1, §2

AGS = AGS cells (non-SEM subtype); 72 hours
Procedure: as §1, §2

NCI_N87 = NCI_N87 cells; 72 hours
Procedure: as §1, §2

SNU601 = SNU601 cells; 72 hours
Procedure: as §1, §2

Hs746T = Hs746T cells (SEM subtype); 72 hours
Procedure: as §1, §2

YCC11 = YCC11 cells (SEM subtype); 72 hours
Procedure: as §1, §2

MKN45 = MKN45 cells (non-SEM subtype); 72 hours
Procedure: as §1, §2

FU97 = system: FU97; set-up: Average Area Under the Viability Curve (AUC), AUC norm value: scale not given here; conditions: FU97 cells; 72 hours
Procedure: Cells cultured for cell-based drug assay were inoculated into a 96-well white optical plate (Corning) at 5×10^3 cells per well. After 24 hours after inoculation, a 2.5 MJT (primary screen) or a half-log 12-serial diluent (secondary screen) of the pharmacological compound contained in DMSO is added to the cells with a robot using a BioMek FXp liquid processor (Beckman) to add to the cells at 50 mM. The final drug concentration in the 5 ns range and the DMSO specification control (0.5%) were calculated. The cells were then further incubated at 37° C. in a 5% CO2 incubator for 72 hours prior to measuring cell viability using the extra-GLO assay kit (Promega). The luminescent properties were measured after 15 min incubation at room temperature using a plate stacker equipped with a plate stacker. The normalized viability for the DMSO-based control was measured to generate a cell line-specific 12-point dose-response curve for each pharmacological compound, and then the area under the curve (AUC) was calculated using a trapezoidal method.

`CC(C)[C@H](C(=O)Nc1ccc(C(=O)NO)cc1)c1ccccc1` [AR-42 (HDAC-42), AR-42] was tested, and the “Average Area Under the Viability Curve (AUC), AUC norm value” (“Average Area Under the Viability Curve” below) (MKN1) was 0.9532, the “Average Area Under the Viability Curve” value (SNU1750) was −1.401 and the “Average Area Under the Viability Curve” value (YCC3) was 0.6875. The “Average Area Under the Viability Curve” value (NCC20) was 0.06736, the “Average Area Under the Viability Curve” value (MKN74) was 0.1789 and the “Average Area Under the Viability Curve” value (NCC19) was 1.026. For the same molecule, the “Average Area Under the Viability Curve” value (OCUM1) was −0.3936, the “Average Area Under the Viability Curve” value (SNU484) was 0.127 and the “Average Area Under the Viability Curve” value (YCC2) was −0.00569. For the same molecule, the “Average Area Under the Viability Curve” value (SNU719) was 2.169, the “Average Area Under the Viability Curve” value (SNU1967) was −0.9137 and the “Average Area Under the Viability Curve” value (NCC59) was 2.102. For the same molecule, the “Average Area Under the Viability Curve” value (SNU638) was −0.7804, the “Average Area Under the Viability Curve” value (SNU16) was −1.427 and the “Average Area Under the Viability Curve” value (SNU620) was −1.197. The “Average Area Under the Viability Curve” value (MKN28) was 0.07777, the “Average Area Under the Viability Curve” value (SNU1) was −0.3147 and the “Average Area Under the Viability Curve” value (NCC24) was −0.6217. For the same molecule, the “Average Area Under the Viability Curve” value (SNU668) was 0.2515, the “Average Area Under the Viability Curve” value (SNU216) was 0 and the “Average Area Under the Viability Curve” value (SK4) was −0.3617. For the same molecule, the “Average Area Under the Viability Curve” value (KATO3) was 0.7324, the “Average Area Under the Viability Curve” value (AGS) was −1.186 and the “Average Area Under the Viability Curve” value (NCI_N87) was −0.1344. For the same molecule, the “Average Area Under the Viability Curve” value (SNU601) was 1.874, the “Average Area Under the Viability Curve” value (Hs746T) was 0.3259 and the “Average Area Under the Viability Curve” value (YCC11) was −0.3298. The “Average Area Under the Viability Curve” value (MKN45) was 1.962 and the “Average Area Under the Viability Curve” value (FU97) was −1.358.
With `NC(=O)Nc1cc(-c2cccc(F)c2)sc1C(=O)N[C@H]1CCCNC1` [AZD7762] the “Average Area Under the Viability Curve” value (MKN1) was −0.01906, the “Average Area Under the Viability Curve” value (SNU1750) was −0.9031 and the “Average Area Under the Viability Curve” value (YCC3) was 1.638. The “Average Area Under the Viability Curve” value (NCC20) was −0.4167, the “Average Area Under the Viability Curve” value (MKN74) was −0.4773 and the “Average Area Under the Viability Curve” value (NCC19) was 2.796. The “Average Area Under the Viability Curve” value (OCUM1) was 0.511, the “Average Area Under the Viability Curve” value (SNU484) was 0 and the “Average Area Under the Viability Curve” value (YCC2) was 0.451. For the same molecule, the “Average Area Under the Viability Curve” value (SNU719) was 3.771, the “Average Area Under the Viability Curve” value (SNU1967) was −0.3626 and the “Average Area Under the Viability Curve” value (NCC59) was 2.107. For the same molecule, the “Average Area Under the Viability Curve” value (SNU638) was 1.404, the “Average Area Under the Viability Curve” value (SNU16) was −1.119 and the “Average Area Under the Viability Curve” value (SNU620) was 0.2258. The “Average Area Under the Viability Curve” value (MKN28) was −0.3131, the “Average Area Under the Viability Curve” value (SNU1) was −0.2026 and the “Average Area Under the Viability Curve” value (NCC24) was 1.107. For the same molecule, the “Average Area Under the Viability Curve” value (SNU668) was 1.537, the “Average Area Under the Viability Curve” value (SNU216) was 0.7004 and the “Average Area Under the Viability Curve” value (SK4) was −0.9696. The “Average Area Under the Viability Curve” value (KATO3) was 2.891, the “Average Area Under the Viability Curve” value (AGS) was −0.4403 and the “Average Area Under the Viability Curve” value (NCI_N87) was 0.8405. For the same molecule, the “Average Area Under the Viability Curve” value (SNU601) was −0.957, the “Average Area Under the Viability Curve” value (Hs746T) was 1.376 and the “Average Area Under the Viability Curve” value (YCC11) was −0.9757. For the same molecule, the “Average Area Under the Viability Curve” value (MKN45) was −0.3384 and the “Average Area Under the Viability Curve” value (FU97) was −0.7616.

Reference: patent publication US20250129430A1, “HIGH ATP-AFFINITY PROTEIN AS THERAPEUTIC TARGET FOR INTRACTABLE CANCER MOLECULAR SUBTYPES AND INHIBITOR THEREOF” (VeraVerse Co., Ltd., priority 2021, published 2025)
